Assay results taken from patent US20210301349A1, “COMPOSITIONS AND METHODS FOR TREATING A TUMOR SUPPRESSOR DEFICIENT CANCER” (BETH ISRAEL DEACONESS MEDICAL CENTER, INC., priority 2016, published 2021).
Values joined by “and” are separate entries in the source; they are usually repeats but may differ in a detail not shown here. Equal entries are not always repeated. “Also recorded” adds a separate entry of the source.

Key:
Assay type in all cases: in vivo, mouse
[1] = tested on: Pten^pc−/−; Trp53^pc−/− prostate tumors; assay: Flow cytometry of immune infiltrate in treated Pten^pc−/−; Trp53^pc−/− prostate tumors; conditions: Trp53^pc−/− prostate tumors after treatment
Procedure: (§1) Mice were allocated at random to experimental groups and studies were performed in an unblended manner. For treatment with the CXCR2 antagonist, SB225002 (Cayman Chemical #13336) was dissolved in DMSO (10 mg/ml) and diluted in vehicle (0.9% NaCl, 0.3% Tween 80) for in vivo administration. Mice (4 months of age) were treated daily for 10 days by intraperitoneal injection (5 mg/kg) and prostate tumor tissue (anterior lobes) was subjected to Flow Cytometry and histological analysis. For MRI analysis, mice (4 months of age) were treated daily for 21 days (Pten^pc−/−; Zbtb7a^pc−/−), for 14 days (Pten^pc−/−; Trp53^pc−/−) or for 14 days (Pten^pc−/−; Pml^pc−/−) by intraperitoneal injection (5 mg/kg). For depletion of Gr-1+/CD11b+ cells, Ly6G-depletion antibody (1A8, BioXcell) and control Rat IgG2a antibody (BioXcell) were diluted in phosphate-buffered saline (PBS) for in vivo administration. Mice (4 months of age) were treated every other day for 10 days by intraperitoneal injection (200-300 μg/mouse). […] Tumor volume quantification was performed by using VivoQuant and Image J software. […]
For Flow Cytometry, spleen and lymph node single cell suspensions were prepared by mashing the tissue in 2% FBS/PBS. […] All staining mixtures were analyzed on a BD LSR II flow cytometer (Becton Dickinson). Resulting profiles were further processed and analyzed using the FlowJo 8.7 software.

[2] = tested on: Pten^pc−/−; Pml^pc−/− prostate tumors; assay: Tumor growth by MRI in Pten^pc−/−; Pml^pc−/− mice under CXCR2 antagonist treatment; conditions: for tumor volume: Pten-Pml, individual mice; for tumor growth: Pten^pc−/−, Pml^pc−/− mice, versus vehicle
Procedure: Mice were allocated at random to experimental groups and studies were performed in an unblended manner. For treatment with the CXCR2 antagonist, SB225002 (Cayman Chemical #13336) was dissolved in DMSO (10 mg/ml) and diluted in vehicle (0.9% NaCl, 0.3% Tween 80) for in vivo administration. Mice (4 months of age) were treated daily for 10 days by intraperitoneal injection (5 mg/kg) and prostate tumor tissue (anterior lobes) was subjected to Flow Cytometry and histological analysis. For MRI analysis, mice (4 months of age) were treated daily for 21 days (Pten^pc−/−; Zbtb7a^pc−/−), for 14 days (Pten^pc−/−; Trp53^pc−/−) or for 14 days (Pten^pc−/−; Pml^pc−/−) by intraperitoneal injection (5 mg/kg). For depletion of Gr-1+/CD11b+ cells, Ly6G-depletion antibody (1A8, BioXcell) and control Rat IgG2a antibody (BioXcell) were diluted in phosphate-buffered saline (PBS) for in vivo administration. Mice (4 months of age) were treated every other day for 10 days by intraperitoneal injection (200-300 μg/mouse). InVivoMAb anti-mouse Ly6G/Ly6C (Gr-1) antibody, clone RB6-8C5 (BE0075, BioXcell), and control Rat IgG2b antibody (BE0090, BioXcell) were diluted in PBS and Pten^pc−/−; Trp53^pc−/− mice were treated every other day for 14 days by intraperitoneal injection (200 μg/mouse). For neutralization of CXCL5, anti-Mouse CXCL5 antibody (Leinco Technologies) and control Rat IgG2a antibody (BioXcell) were diluted in PBS and injected every other day for 21 days by intraperitoneal injection (20 μg/mouse). Tumor volume quantification was performed by using VivoQuant and Image J software. All mouse prostate MRI imaging analysis was performed at Small Animal Imaging Core at BIDMC and acquired on an ASPECT Model M2 1T tabletop scanner.

[3] = tested on: Pten^pc−/−; Zbtb7a^pc−/− tumors (anterior prostate lobes); assay: Histological analysis of treated Pten^pc−/−; Zbtb7a^pc−/− tumors; conditions: Zbtb7a^pc−/− mice, 10 days of i.p. treatment, versus vehicle or control IgG
Procedure: as §1, with “mg/kg).” for “mg/kg). For depletion of Gr-1+/CD11b+ cells, Ly6G-depletion antibody (1A8, BioXcell) and control Rat IgG2a antibody (BioXcell) were diluted in phosphate-buffered saline (PBS) for in vivo administration. Mice (4 months of age) were treated every other day for 10 days by intraperitoneal injection (200-300 μg/mouse).”
For western blotting, cell lysates were prepared by homogenizing tumor tissue with NP40 Buffer (Boston Bioproducts) supplemented with protease (Roche) and HALT phosphatase inhibitor cocktails (Thermo Scientific) and subsequently subjected to SDS-Gel separation (Invitrogen) and western blotting. […] Western blots were quantified using Image J software. […] Embedding and hematoxylin and eosin staining of sections were performed by the Histology Core at BIDMC and analyzed by a pathologist. […]

SMILES: O=C(Nc1ccc([N+](=O)[O-])cc1O)Nc1ccccc1Br [SB225002]
- Treg cells (Foxp3+) [1]: less Foxp3+ cells; also recorded: less Treg cells
- intra-tumoral Gr-1+/CD11b+ cells [1]: decrease of Gr-1+/CD11b+ cells
- tumor volume ([2]; CXCR2i (SB225002 5 mg/kg i.p. daily), row 0 = day 0 baseline, MRI): 45.996 mm3 and 37.426 mm3
- tumor volume ([2]; CXCR2i, row 1 (weekly MRI)): 53.662 mm3 and 43.164 mm3
- tumor volume ([2]; CXCR2i, row 2 (weekly MRI, 2 weeks on treatment)): 56.567 mm3 and 45.972 mm3
- tumor growth [2]: did not show any significant response
- tumor growth ([2]; listed as CXCR2i): did not respond
- tumor burden by histological analysis [3]: reduced tumor burden
- tumor burden by histological analysis ([3]; listed as CXCR2 inhibitor): significantly diminished tumor involvement
